Reference: patent US5108990A, “Glutamic acid derivatives” (Roussel Uclaf, priority 1987, dated 1992)
Structures can show the parent of a compound that is named as a salt.

How the values were obtained:
monocytes [1] = experiment: Stimulation of monocytic cells; Interleukin-1 (IL-1) test on supernatants/lysates (mouse thymocyte co-mitogenic assay); assay type: cell-based, human; conditions: for stimulation of monocytes and their IL-1 production: adherent blood monocytes cultured 24 or 48 hours with test product; for synergy with interferon-γ and or LPS: monocyte stimulation (IL-1 and TNF production), IFN-γ 10^3 U/ml, a dose inactive alone
Method: (§1) The mononuclear cells of the circulating blood of normal donors were separated by the classical technique described by Boyum using a Ficoll gradient. After being washed, the mononuclear cells were incubated at 37° C. for 1 hour in the proportion of 5×10^6 monocytes (NSE^+ cells) per ml of culture medium, 5 ml per culture bottle. The culture medium used in this experiment was composed of RPMI 1640 to which antibiotics and HEPES buffer had been added. After one hour, the non-adherent cells were removed by washing the bottles with medium previously brought to 37° C., and the adherent cells, composed essentially of monocytes (>90%), were cultured again in the presence of different amounts of test products in a PBS medium (Dulbecco) without Ca^2+ or Mg^2+. Culturing was continued for 24 or 48 hours and the cell supernatants were then withdrawn, centrifuged, aliquoted and stored either at -80° C. or at -20° C. The culture supernatants were replaced in the bottles by the same amount of pyrogen-free distilled water to lyse the cells. The lysate was recovered, aliquoted and also stored at -20° C.
(§2) Tests for the presence in the supernants of monokines (interleukin-1 and tumor necrosis factor) on the basis of their biological activity.
This test was first described by Gery et al in 1972 [Gery et al, 1972 Potentiation of the T Lymphocyte response to mitogens. II. The Cellular Source of Potentiating Mediator(s). J. Exp. Med., 136-143]. It is based on the co-mitogenic action of IL-1 in the presence of an antigen (mimicked by phytohaemagglutinin in the test) on mouse thymocytes. 1.5×10^6 thymocytes of C3 H/HeJ mice (supplied by C.S.E.A.L. of Orleans) were cultured for 3 days in the presence of different dilutions of cell supernatants and lysates likely to contain IL-1 activity, and Wellcome PHA-P (1 μg/ml), in culture plates having 96 flat-bottomed wells, in a final volume of 200 μl of medium composed of RPMI 1640 containing, in addition to antibiotics (penicillin 1 μ/ml streptomycin 1000 μ/ml, 1 mM HEPES buffer, 2 mM glutamine, 5% calf serum and 5×10^-5 M 2-mercaptoethanol). After 68 hours of culturing, 1 μCi of tritiated thymidien was added to each well ([methyl^3 H]-thymidine, CEA Saclay, TMM79A, specific activity […]), and the radioactivity incorporated by the cells was measured after the cultures had been filtered on a Skaton type semi-automatic collecting apparatus and the filters counted in a scintillation counter (LKB). The results were expressed as the difference between the pulses per minute incorporated by the cultures in the presence of supernatants and the pulses per minute incorporated by the control cultures.

monocytes [2] = experiment: Stimulation of monocytic cells; Tumor Necrosis Factor (TNF) test on supernatants (toxicity on L-929 target cells); assay type: cell-based, human; conditions: adherent blood monocytes cultured 24 or 48 hours with test product
Method: as §1, §2
The technique was sensitized by adding actinomycin D to the test. The L cells were distributed in the proportion of 2×10^4 cells per well of a flat-bottomed microplate in 100 μl of RPMI 1640 medium enriched with 5% calf serum, glutamine, HEPES buffer and antibiotics. After 24 hours, different dilutions of the test supernatants were added in a volume of 100 μl, as well as a dose of actinomycin D of 1 μg/ml. After 24 hours of culturing, the number of unlysed viable cells was measured by staining the plates with crystal violet and measuring the optical density of different wells on a multiscan reader.

human B lymphocytes = experiment: Production of immuno-globulins (ELISA of supernatants, alone or with Staphylococcus aureus Cowan); assay type: cell-based; conditions: in the presence of SAC (10^-3 and 10^-4); 0.1, 1 and 10 μg/ml; one week
Method: The same cells were cultivated for a week in the presence of different products to be tested at a dose of 0.1, 1 and 10 μg/ml alone or in the presence of two doses of the bacteria Staphylococcus aureus Cowan (SAC) (10^-3 and 10^-4), bacteria known for stimulating the production of immuno-globulins by the human B lymphocytes in a non-specific manner. The supernatants are collected at the end of the culture, and their content of immuno-globulin is evaluated by standard techniques of detection by the ELISA method using a human anti-immunoglobulin anti-body available commercially. The results are given in ng of immuno-globulin per ml of supernatant.

C=C(CC(N)C(=O)O)CC(NC(=O)CC[C@@H](N)C(=O)O)C(=O)O (stereo partly drawn) [Example 1, 2-amino-6-(γ-D-glutamylamino)-4-methylene-heptanedioic acid]
stimulation of monocytes and their IL-1 production (monocytes [1]): stimulated | synergy with interferon-γ and or LPS (monocytes [1]): synergy | stimulation of monocytes and their TNF production (monocytes [2]): stimulated

C=C(CC(NC(=O)CC[C@@H](N)C(=O)O)C(=O)O)CC(NC(=O)[C@H](C)N)C(=O)O (stereo partly drawn) [Example 2, 2-(L-Alanylamino)-6-(γ-D-glutamylamino)-4-methyleneheptanedioic acid]
stimulation of monocytes and their IL-1 production (monocytes [1]): stimulated | synergy with interferon-γ and or LPS (monocytes [1]): synergy | stimulation of monocytes and their TNF production (monocytes [2]): stimulated

C=C(CC(N)C(=O)O)CC(NC(=O)CC[C@@H](NC(=O)[C@H](C)NC(=O)CCCCCCCCCCCCCCCCC)C(=O)O)C(=O)O (stereo partly drawn) [Example 8, 2-Amino-4-methylene-6-[N-1-oxo-octadecyl)-L-alanyl)-γ-D-glutamyl-amino]-heptanedioic acid and its tri sodium salt]
stimulation of monocytes and their IL-1 production (monocytes [1]): stimulated | synergy with interferon-γ and or LPS (monocytes [1]): synergy | stimulation of monocytes and their TNF production (monocytes [2]): stimulated | production of immuno-globulins in the presence of SAC (human B lymphocytes): capable of increasing the production of immuno-globulins

C=C(CC(N)C(=O)O)CC(NC(=O)CC[C@@H](NC(=O)CCCCCCCCCCCCCCCCC)C(=O)O)C(=O)O (stereo partly drawn) [Example 9, 2-Amino-4-methylene-6-[[N-(1-oxo-octadecyl)-γ-D-glutamyl]amino]-heptanedioic acid]
stimulation of monocytes and their IL-1 production (monocytes [1]): stimulated | synergy with interferon-γ and or LPS (monocytes [1]): synergy | stimulation of monocytes and their TNF production (monocytes [2]): stimulated
